Results reported in PMC10816640, “Discovery of Novel Diphenyl Acrylonitrile Derivatives That Promote Adult Rats’ Hippocampal Neurogenesis” (International Journal of Molecular Sciences, 2024).
“Also recorded” adds a separate entry of the source.

Key:
[1] = test system: progenitor cells in the rodents’ hippocampi; experiment: Proliferation stage of neurogenesis: BrdU labeling, rats sacrificed 24 h after BrdU; format: in vivo, rat; details: i.p. 4.0 mg/kg/day for 28 days, BrdU pulse, vs vehicle; for proliferation-promoting activity (number of BrdU+ positive cells): nine-week-old rats (n = 4)
Excerpt: (§1) Previous in vitro or in vivo studies mainly focused on stimulating the proliferation effect of the small molecules. In this study, a two-step protocol was employed. First, the stimulating function of the compounds on progenitor cells in the rodents’ hippocampi was examined with using bromodeoxyuridine (BrdU) labeling. Next, the potent compounds were further screened to ascertain their ability to promote the differentiation of neural progenitor cells, as confirmed by dual labeling of BrdU and NeuN (neuronal nuclear antigen).
Adult rats were administered intraperitoneally with the prepared compounds at a dose of 4.0 mg/kg/day for a period of 28 days, followed by a BrdU pulse. After 24 h, the rats were sacrificed, and their brain tissues were isolated and cryosectioned. Immunohistochemical staining was performed and eight brain tissue slices were randomly selected for statistical analyzing.
Eight-week-old (or 10-week-old) SD male rats purchased from Peking University Health Science Center were acclimatized for one week at the Beijing Institute of Technology. All experimental protocols strictly adhered to the regulations governing the management of experimental animals and the animal ethics policy of the Beijing Institute of Technology.
(§2) The compounds were dissolved in reagent-grade soybean oil containing 10% ethanol to reach a drug concentration of 2.8 mg/mL. The rats in the experimental group received intraperitoneal injections of the compounds at a dose of 4.0 mg/kg/d for 28 consecutive days. As a control, the vehicle group was administered injections of reagent-grade soybean oil containing 10% ethanol. BrdU (Sigma-Aldrich, St. louis, MA, USA) solution, prepared in physiological saline at a concentration of 10 mg/mL, was administered to all rats on day 29. Each rat received two injections of BrdU at a dosage of 50 mg/kg, with a 2 h interval between injections. The rats were euthanized 24 h (or 28 days) after the final BrdU injection.
(§3) Two or four rats per group were anesthetized using pentobarbital sodium (70 mg/kg) and subsequently perfused with physiological saline. The brain tissue was carefully dissected and fixed in 4% paraformaldehyde at 4 °C for one week. Next, the brain tissue underwent dehydration using a phosphate-buffered saline (PBS) solution containing 20% to 30% sucrose. Finally, the brain tissue was cryosectioned into slices with a thickness of 30 μm, and eight slices were randomly selected for further analysis.
The assessment of new cell proliferation was conducted using BrdU staining. To eliminate endogenous peroxides, sections were exposed to 1% H2O2 for 30 min at RT. Cellular denaturation was achieved by treating the sections with 2 M HCl at 37 °C for 1 h, followed by rinsing in 0.1 M borate buffer (pH 8.5). Tissue sections were subjected to blocking in a solution consisting of 5% goat serum and 0.5% Triton X-100 in PBS at RT for 1–2 h. The specimens were then incubated overnight at 4 °C with a mouse primary antibody specific to BrdU (diluted at 1:500; Millipore, Billerica, MA, USA). Subsequently, the DAB kit was employed for 2 h of incubation at RT.
(§4) The data were presented as mean ± SEM (standard error of the mean) and visualized using GRAPHPAD PRISM 6 (Graphpad Software, La Jolla, CA, USA). Statistical analysis was conducted utilizing one-way analysis of variance (ANOVA) followed by a post hoc test. Subsequent to the statistical treatment, the observed discrepancies were determined to be statistically significant (p < 0.05).

[2] = test system: newborn neural progenitor cells (differentiation into mature neurons); experiment: Differentiation stage of neurogenesis: NeuN/BrdU double staining, rats sacrificed 28 days after BrdU; format: in vivo, rat; details: for neurogenesis-promoting activity (number of NeuN+ and BrdU+ cells), differentiation stage: nine-week-old rats (n = 4), i.p. 4.0 mg/kg, Figure 9, 4 mg/kg
Excerpt: as §1
The study employed a rat model, wherein nine-week-old rats were administered intraperitoneally with the compound at a dose of 4.0 mg/kg/day for 28 days and then treated with a pulse of BrdU. Instead of sacrificing the rats 24 h after the BrdU injections, the rats were sacrificed after another 28 days. The brains were then isolated and cryosectioned. Eight randomly selected slices were subjected to immunohistochemical staining. This staining enabled the co-localization of the BrdU-incorporated cells with the NeuN marker, enabling the definition of the compounds that could promote the differentiation of newborn neural progenitor cells into mature functional neurons.
as §2, §3
The differentiation process of NPCs was visualized through the utilization of the NeuN/BrdU double staining technique. Tissue sections were subjected to an incubation period in a blocking buffer at RT for 1 to 2 h. The specimens were exposed to a rabbit anti-NeuN antibody (diluted at 1:500, Abcam, Cambridge, MA, UK) and a primary antibody, BrdU (diluted at 1:500), overnight at 4 °C. Afterwards, the sections were treated with anti-mouse 488 and anti-rabbit TRITC secondary antibodies for 2 h at RT.
as §4

hCMEC/D3 cells = experiment: CCK-8 assay for cytotoxicity; format: cell-based; details: hCMEC/D3 cell lines, CCK-8, 48 h incubation
Method: hCMEC/D3 cells were obtained from the Cell Resource Center, Peking Union Medical College (PCRC). All cells were acquired in 2023 and were maintained in culture for no more than 10 continuous passages. The cells were cultured in DMEM (11995065, Gibco, Grand Island, NY, USA) supplemented with 10% FBS (164210-50, Procell, Austin, TX, USA), 100 units of penicillin, and […] of streptomycin (PB180120, Procell).
hCMEC/D3 cells (5 × 10^3) were seeded into 96-well plates in 90 μL of DMEM medium containing 10% fetal bovine serum per well. All test compounds were formulated as 10 mM stock solutions in DMSO (final concentration ≤ 0.5%). After overnight incubation, the test compound stock solution was diluted with DMEM medium containing 10% fetal bovine serum to every target concentration, and 10 μL of each was added to each well. Three parallel experiments were set up for each compound. After incubation for 48 h, 10 μL of CCK-8 reagent was added to each well in sequence according to the manufacturer’s instructions. After incubating in a 37 °C incubator for 1–2 h, the absorbance was measured at a wavelength of 450 nm, using a wavelength of 620 nm as a reference, and detected with a ThermoScientific Multiskan FC (Thermo Fisher Scientific). The graphs are representative results, and this experiment was independently repeated three times with similar results.

[3] = test system: newborn cells in the subgranular zone; experiment: BrdU+ newborn cells, rats sacrificed 28 days after BrdU; format: in vivo, rat; details: nine-week-old rats (n = 2), i.p. 4.0 mg/kg/day for 28 days, BrdU pulse, Figure 7A
Method: The study employed a rat model, wherein nine-week-old rats were administered intraperitoneally with the compound at a dose of 4.0 mg/kg/day for 28 days and then treated with a pulse of BrdU. Instead of sacrificing the rats 24 h after the BrdU injections, the rats were sacrificed after another 28 days. The brains were then isolated and cryosectioned. Eight randomly selected slices were subjected to immunohistochemical staining. This staining enabled the co-localization of the BrdU-incorporated cells with the NeuN marker, enabling the definition of the compounds that could promote the differentiation of newborn neural progenitor cells into mature functional neurons. The compounds were dissolved in reagent-grade soybean oil containing 10% ethanol to reach a drug concentration of 2.8 mg/mL. The rats in the experimental group received intraperitoneal injections of the compounds at a dose of 4.0 mg/kg/d for 28 consecutive days. As a control, the vehicle group was administered injections of reagent-grade soybean oil containing 10% ethanol. BrdU (Sigma-Aldrich, St. louis, MA, USA) solution, prepared in physiological saline at a concentration of 10 mg/mL, was administered to all rats on day 29. Each rat received two injections of BrdU at a dosage of 50 mg/kg, with a 2 h interval between injections. The rats were euthanized 24 h (or 28 days) after the final BrdU injection. Two or four rats per group were anesthetized using pentobarbital sodium (70 mg/kg) and subsequently perfused with physiological saline. The brain tissue was carefully dissected and fixed in 4% paraformaldehyde at 4 °C for one week. Next, the brain tissue underwent dehydration using a phosphate-buffered saline (PBS) solution containing 20% to 30% sucrose. Finally, the brain tissue was cryosectioned into slices with a thickness of 30 μm, and eight slices were randomly selected for further analysis. The assessment of new cell proliferation was conducted using BrdU staining. To eliminate endogenous peroxides, sections were exposed to 1% H2O2 for 30 min at RT. Cellular denaturation was achieved by treating the sections with 2 M HCl at 37 °C for 1 h, followed by rinsing in 0.1 M borate buffer (pH 8.5). Tissue sections were subjected to blocking in a solution consisting of 5% goat serum and 0.5% Triton X-100 in PBS at RT for 1–2 h. The specimens were then incubated overnight at 4 °C with a mouse primary antibody specific to BrdU (diluted at 1:500; Millipore, Billerica, MA, USA). Subsequently, the DAB kit was employed for 2 h of incubation at RT. The differentiation process of NPCs was visualized through the utilization of the NeuN/BrdU double staining technique. Tissue sections were subjected to an incubation period in a blocking buffer at RT for 1 to 2 h. The specimens were exposed to a rabbit anti-NeuN antibody (diluted at 1:500, Abcam, Cambridge, MA, UK) and a primary antibody, BrdU (diluted at 1:500), overnight at 4 °C. Afterwards, the sections were treated with anti-mouse 488 and anti-rabbit TRITC secondary antibodies for 2 h at RT. The data were presented as mean ± SEM (standard error of the mean) and visualized using GRAPHPAD PRISM 6 (Graphpad Software, La Jolla, CA, USA). Statistical analysis was conducted utilizing one-way analysis of variance (ANOVA) followed by a post hoc test. Subsequent to the statistical treatment, the observed discrepancies were determined to be statistically significant (p < 0.05).

[4] = test system: progenitors in rodents’ hippocampi; design: method as in PMID 28525839; details: cited from earlier work

For `CC(=O)Nc1ccc(/C=C(\C#N)c2ccc3c(c2)OCO3)cc1` [32a, (Z)-N-(4-(2-(benzo[d][1, 3]dioxol-5-yl)-2-cyanovinyl)phenyl)acetamide], the “proliferation-promoting activity (number of BrdU+ positive cells)” value ([1]; Figure 8, 4 mg/kg/day) was “significant proliferation-promoting activity; also recorded: exhibited proliferative activity”, the “neurogenesis-promoting activity (number of NeuN+ and BrdU+ cells), differentiation stage” value [2] was “significant neurogenesis-promoting activity; also recorded: better activity than the clinical drug NSI-189” and the IC50 (hCMEC/D3 cells) was 109 ± 12.9 µM.
With `CC(C)NC(=O)c1ccc(/C=C/c2ccc3c(c2)OCO3)cc1` [39b, (E)-4-(2-(benzo[d][1, 3]dioxol-5-yl)vinyl)-N-isopropylbenzamide] the “proliferation-promoting activity (number of BrdU+ newborn cells)” value ([1]; eleven-week-old rats (n = 2), Figures 3-6, 4 mg/kg/day) was “significant proliferation-promoting activity; also recorded: activity comparable to that found in amides 8c, 8d, and 29b”, the “proliferative activity over the longer 28 day period (number of BrdU+ cells)” value [3] was “could promote the proliferation of progenitors” and the “neurogenesis-promoting activity (number of NeuN+ and BrdU+ cells, newborn neurons)” value ([2]; nine-week-old rats (n = 2), i.p. 4.0 mg/kg/day for 28 days, BrdU pulse, Figure 7B) was “ranked second in terms of activity, without statistical significance”.
For `CC(=O)Nc1ccc(/C=C/c2ccc3c(c2)OCO3)cc1` [WS-6, N-trans-3′,4′-methylenedioxystilben-4-yl acetamide], the “promoting the proliferation of progenitors and differentiation into neurons” value [4] is given as “excellent capacity”.
For `CC(=O)Nc1ccc(/C(C#N)=C/c2ccc3c(c2)OCO3)cc1` [29a, (Z)-N-(4-(2-(benzo[d][1, 3]dioxol-5-yl)-1-cyanovinyl)phenyl)acetamide], the “proliferation-promoting activity (number of BrdU+ positive cells)” value ([1]; Figure 8) was “inactive” and the “neurogenesis-promoting activity (number of NeuN+ and BrdU+ cells), differentiation stage” value [2] was “did not show activity; also recorded: no significant neurogenesis-promoting activity”.
